Reference: patent US10175228B2, “Method of using transmembrane channel-like protein 6 (TMC6) protein to identify substances affecting salty taste” (priority 2016, dated 2019)

Biological target: T1, mouse TMC6 protein (Mus musculus, UniProt Q7TN60, A788T)
T1 construct: expressed in transfected cells; host or cells: CHO-K1
T1 sequence (Q7TN60 1-810 A788T): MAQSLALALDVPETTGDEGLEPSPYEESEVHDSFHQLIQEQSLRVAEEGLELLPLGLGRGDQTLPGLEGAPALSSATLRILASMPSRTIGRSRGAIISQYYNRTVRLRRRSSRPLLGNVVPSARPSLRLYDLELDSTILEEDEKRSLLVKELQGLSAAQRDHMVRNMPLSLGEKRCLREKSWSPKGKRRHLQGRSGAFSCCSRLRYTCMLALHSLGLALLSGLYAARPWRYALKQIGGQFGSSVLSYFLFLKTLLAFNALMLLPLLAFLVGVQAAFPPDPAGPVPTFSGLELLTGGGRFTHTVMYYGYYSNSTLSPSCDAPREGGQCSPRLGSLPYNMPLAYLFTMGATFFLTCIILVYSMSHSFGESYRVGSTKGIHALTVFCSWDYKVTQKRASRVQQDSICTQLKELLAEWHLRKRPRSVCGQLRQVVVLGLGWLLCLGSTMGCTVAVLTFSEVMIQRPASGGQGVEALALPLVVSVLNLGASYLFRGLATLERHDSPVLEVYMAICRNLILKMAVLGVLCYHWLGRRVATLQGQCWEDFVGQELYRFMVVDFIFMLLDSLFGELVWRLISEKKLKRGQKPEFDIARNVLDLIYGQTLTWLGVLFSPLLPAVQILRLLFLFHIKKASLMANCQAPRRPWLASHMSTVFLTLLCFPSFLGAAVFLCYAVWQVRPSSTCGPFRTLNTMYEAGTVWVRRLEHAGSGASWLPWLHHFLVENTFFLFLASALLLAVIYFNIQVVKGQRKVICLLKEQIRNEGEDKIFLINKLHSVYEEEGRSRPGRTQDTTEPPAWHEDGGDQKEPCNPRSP
Experiment: Calcium imaging (YC2.60 FRET) of CHO-K1 cells expressing the mouse TMC6 gene
Assay type: cell-based
Method: CHO-K1 cells were transfected with TMC6-pcDNA3.1 or pcDNA3.1 in combination with YC2.60-pcDNA, to prepare TMC6-expressing cells (cells expressing the mouse TMC6 gene and the YC2.60 gene) and control cells (cells expressing the YC2.60 gene). The prepared cells were stimulated, and activation of the cells was measured. The procedure was as follows.
That is, first, CHO-K1 cells (ATCC) were inoculated into a culture dish having a diameter of 60 mm while adjusting the number of the cells to obtain 60% confluence, and cultured for 8 hr. As the medium, 5 mL of Ham's F-12K (Kaighn's) (Life Technologies) containing 10% fetal bovine serum (Life Technologies) was used. A 15 μL aliquot of FuGENE 6 (Promega) was added to 235 μL of Opti-MEM (Thermo Fisher Scientific), and incubated for 5 min at a room temperature. Then, 0.625 μg of TMC6-pcDNA3.1 and 2.5 μg of YC2.60-pcDNA were further added thereto, and incubated for 15 min at a room temperature. Then, the whole of the resultant mixture was dropped into the culture broth of the CHO-K1 cells, and the culture broth was mildly stirred. Then, the cells were further cultured for 18 hr under a condition of 5% CO2 at 37° C., to obtain the TMC6-expressing cells. Similarly, the control cells were obtained through transfection using pcDNA3.1 instead of TMC6-pcDNA3.1.
After the cultivation, the culture broth was removed. A low-concentration NaCl solution (27 mM NaCl, 1 mM KCl, 0.4 mM CaCl2, 0.2 mM MgCl2, 2 mM Hepes (pH7.3), 1 mM NaHCO3, 2 mM glucose, 2 mM sodium pyruvate, and 112 mM NMDG-Cl) was added to the culture dish, incubation was carried out statically for 5 min, and then, stimulation and observation of cells were started. First, the low-concentration NaCl solution was perfused for approximately 80 sec, to provide a ground state. Then, a high-concentration NaCl solution (135 mM NaCl, 1 mM KCl, 0.4 mM CaCl2, 0.2 mM MgCl2, 2 mM Hepes (pH7.3), 1 mM NaHCO3, 2 mM glucose, and 2 mM sodium pyruvate) was perfused instead of the low-concentration NaCl solution for approximately 60 sec, to stimulate the cells. […]

[Cl-].[Na+] [NaCl, sodium chloride]
relative FRET value (YFP/CFP) of the ROI-1 cell (one typical TMC6-expressing cell, stimulation with high-concentration NaCl solution (135 mM NaCl), FIG. 13C): approximately 1.2
change of YFP/CFP value (intracellular calcium concentration, cell activation) (stimulation with high-concentration NaCl solution (135 mM NaCl) for approx. 60 sec after 27 mM NaCl ground state): increase
